The kinase profiling compilation of Christmann-Franck et al. (2016)
pKd: −log10 of the molar value.

Assays:
Assay in all cases: KINOMEscan competition binding
MAST1 (human) = MAST1 (human) (UniProt Q9Y2H9); settings: compound 10.0 µM
ACVR1 (human) = ACVR1 (human) (UniProt Q04771); settings: compound 10.0 µM
CDKL2 (human) = CDKL2 (human) (UniProt Q92772); settings: compound 10.0 µM
FGFR2 (human) = FGFR2 (human) (UniProt P21802); settings: compound 10.0 µM
STK35 (human) = STK35 (human) (UniProt Q8TDR2); settings: compound 10.0 µM
MKNK1 (human) = MKNK1 (human) (UniProt Q9BUB5); settings: compound 10.0 µM
[1] = system: EGFR (human), P00533 [L858R]; settings: compound 10.0 µM
TLK1 (human) = TLK1 (human) (UniProt Q9UKI8); settings: compound 10.0 µM
MYO3A (human) = MYO3A (human) (UniProt Q8NEV4); settings: compound 10.0 µM
CDKL1 (human) = CDKL1 (human) (UniProt Q00532); settings: compound 10.0 µM
NUAK2 (human) = NUAK2 (human) (UniProt Q9H093); settings: compound 10.0 µM
NTRK3 (human) = NTRK3 (human) (UniProt Q16288); settings: compound 10.0 µM
Sequence of NTRK3 (human) (Q16288 whole entry, looked up): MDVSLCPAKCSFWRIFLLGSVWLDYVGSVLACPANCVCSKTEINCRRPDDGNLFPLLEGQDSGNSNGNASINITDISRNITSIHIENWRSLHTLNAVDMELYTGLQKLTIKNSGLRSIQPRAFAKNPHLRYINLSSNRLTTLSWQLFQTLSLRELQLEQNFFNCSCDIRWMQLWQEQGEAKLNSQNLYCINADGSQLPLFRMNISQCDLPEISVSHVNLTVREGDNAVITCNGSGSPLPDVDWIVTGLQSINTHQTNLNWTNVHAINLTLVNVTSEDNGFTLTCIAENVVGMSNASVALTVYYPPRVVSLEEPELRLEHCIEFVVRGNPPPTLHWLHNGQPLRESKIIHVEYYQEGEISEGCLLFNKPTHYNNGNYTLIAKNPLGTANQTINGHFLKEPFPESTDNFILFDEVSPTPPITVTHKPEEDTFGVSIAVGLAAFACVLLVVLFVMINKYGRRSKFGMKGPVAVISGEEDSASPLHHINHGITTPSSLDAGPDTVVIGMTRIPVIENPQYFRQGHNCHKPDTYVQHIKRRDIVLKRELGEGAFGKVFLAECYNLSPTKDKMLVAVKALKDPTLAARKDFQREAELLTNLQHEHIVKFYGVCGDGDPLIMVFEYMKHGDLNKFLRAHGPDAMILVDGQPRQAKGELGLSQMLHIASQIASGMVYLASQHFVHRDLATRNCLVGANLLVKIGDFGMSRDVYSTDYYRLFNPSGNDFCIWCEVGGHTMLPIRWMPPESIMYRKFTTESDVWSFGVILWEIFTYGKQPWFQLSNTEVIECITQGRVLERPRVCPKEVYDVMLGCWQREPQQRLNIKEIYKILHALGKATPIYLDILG

CSNK1G3 (human) = CSNK1G3 (human) (UniProt Q9Y6M4); settings: compound 10.0 µM
EPHA7 (human) = EPHA7 (human) (UniProt Q15375); settings: compound 10.0 µM
PHKG1 (human) = PHKG1 (human) (UniProt Q16816); settings: compound 10.0 µM
Sequence of PHKG1 (human) (Q16816 whole entry, looked up): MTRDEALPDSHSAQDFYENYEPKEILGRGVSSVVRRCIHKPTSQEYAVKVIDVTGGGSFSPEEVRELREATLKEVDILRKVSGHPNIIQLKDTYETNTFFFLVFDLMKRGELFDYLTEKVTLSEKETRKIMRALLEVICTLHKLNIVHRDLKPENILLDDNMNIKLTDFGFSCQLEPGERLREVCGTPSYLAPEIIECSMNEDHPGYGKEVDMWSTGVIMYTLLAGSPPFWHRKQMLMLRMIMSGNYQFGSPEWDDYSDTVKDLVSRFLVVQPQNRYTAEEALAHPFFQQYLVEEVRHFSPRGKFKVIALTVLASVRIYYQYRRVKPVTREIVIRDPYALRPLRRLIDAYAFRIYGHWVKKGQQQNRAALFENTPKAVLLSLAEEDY

[2] = system: PIK3CA (human), P42336 [C420R]; settings: compound 10.0 µM
TNK2 (human) = TNK2 (human) (UniProt Q07912); settings: compound 10.0 µM
BTK (human) = BTK (human) (UniProt Q06187); settings: compound 10.0 µM
HIPK3 (human) = HIPK3 (human) (UniProt Q9H422); settings: compound 10.0 µM
CSF1R (human) = CSF1R (human) (UniProt P07333); settings: compound 10.0 µM
[3] = system: FLT3 (human), P36888 [K663Q]; settings: compound 10.0 µM
PRKCH (human) = PRKCH (human) (UniProt P24723); settings: compound 10.0 µM
NLK (human) = NLK (human) (UniProt Q9UBE8); settings: compound 10.0 µM
TIE1 (human) = TIE1 (human) (UniProt P35590); settings: compound 10.0 µM
BMP2K (human) = BMP2K (human) (UniProt Q9NSY1); settings: compound 10.0 µM
PDPK1 (human) = PDPK1 (human) (UniProt O15530); settings: compound 10.0 µM
DCLK2 (human) = DCLK2 (human) (UniProt Q8N568)
Sequence of DCLK2 (human) (Q8N568 whole entry, looked up): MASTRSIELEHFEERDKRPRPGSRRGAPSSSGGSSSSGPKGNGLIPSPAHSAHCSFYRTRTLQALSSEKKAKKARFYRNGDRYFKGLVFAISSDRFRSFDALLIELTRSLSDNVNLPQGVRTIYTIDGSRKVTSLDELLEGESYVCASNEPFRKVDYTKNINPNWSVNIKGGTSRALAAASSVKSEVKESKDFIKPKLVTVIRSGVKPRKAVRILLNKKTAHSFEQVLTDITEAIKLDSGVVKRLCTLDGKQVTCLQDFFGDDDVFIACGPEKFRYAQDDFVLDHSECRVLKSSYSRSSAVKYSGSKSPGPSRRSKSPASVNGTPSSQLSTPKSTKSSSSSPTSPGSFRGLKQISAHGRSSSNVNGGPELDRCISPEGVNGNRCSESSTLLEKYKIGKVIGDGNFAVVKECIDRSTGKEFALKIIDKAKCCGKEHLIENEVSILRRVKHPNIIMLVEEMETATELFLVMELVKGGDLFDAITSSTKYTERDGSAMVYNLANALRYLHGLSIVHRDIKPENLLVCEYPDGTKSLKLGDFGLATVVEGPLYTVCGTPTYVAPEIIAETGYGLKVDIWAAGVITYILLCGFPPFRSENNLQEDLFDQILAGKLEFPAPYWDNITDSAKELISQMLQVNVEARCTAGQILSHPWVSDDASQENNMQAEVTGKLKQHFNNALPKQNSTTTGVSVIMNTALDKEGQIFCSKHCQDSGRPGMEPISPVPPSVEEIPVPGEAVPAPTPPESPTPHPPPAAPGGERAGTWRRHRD

PDGFRB (human) = PDGFRB (human) (UniProt P09619); settings: compound 10.0 µM
BMPR1B (human) = BMPR1B (human) (UniProt O00238); settings: compound 10.0 µM
IRAK4 (human) = IRAK4 (human) (UniProt Q9NWZ3); settings: compound 10.0 µM
Sequence of IRAK4 (human) (Q9NWZ3 whole entry, looked up): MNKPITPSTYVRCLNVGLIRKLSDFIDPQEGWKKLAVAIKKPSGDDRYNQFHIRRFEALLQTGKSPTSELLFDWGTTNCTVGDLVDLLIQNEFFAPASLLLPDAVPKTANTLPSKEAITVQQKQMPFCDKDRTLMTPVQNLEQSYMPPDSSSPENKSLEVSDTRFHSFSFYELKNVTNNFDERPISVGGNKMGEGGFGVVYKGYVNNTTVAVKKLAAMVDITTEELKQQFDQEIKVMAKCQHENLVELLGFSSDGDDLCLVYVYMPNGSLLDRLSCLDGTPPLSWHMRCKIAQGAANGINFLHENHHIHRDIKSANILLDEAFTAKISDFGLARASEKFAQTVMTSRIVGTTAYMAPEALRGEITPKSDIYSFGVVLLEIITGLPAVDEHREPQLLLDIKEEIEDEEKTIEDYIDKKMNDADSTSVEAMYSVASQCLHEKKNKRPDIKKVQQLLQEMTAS

[4] = system: RET (human), P07949 [V804M]; settings: compound 10.0 µM
Sequence of RET (human), P07949 [V804M] (P07949 whole entry V804M, looked up): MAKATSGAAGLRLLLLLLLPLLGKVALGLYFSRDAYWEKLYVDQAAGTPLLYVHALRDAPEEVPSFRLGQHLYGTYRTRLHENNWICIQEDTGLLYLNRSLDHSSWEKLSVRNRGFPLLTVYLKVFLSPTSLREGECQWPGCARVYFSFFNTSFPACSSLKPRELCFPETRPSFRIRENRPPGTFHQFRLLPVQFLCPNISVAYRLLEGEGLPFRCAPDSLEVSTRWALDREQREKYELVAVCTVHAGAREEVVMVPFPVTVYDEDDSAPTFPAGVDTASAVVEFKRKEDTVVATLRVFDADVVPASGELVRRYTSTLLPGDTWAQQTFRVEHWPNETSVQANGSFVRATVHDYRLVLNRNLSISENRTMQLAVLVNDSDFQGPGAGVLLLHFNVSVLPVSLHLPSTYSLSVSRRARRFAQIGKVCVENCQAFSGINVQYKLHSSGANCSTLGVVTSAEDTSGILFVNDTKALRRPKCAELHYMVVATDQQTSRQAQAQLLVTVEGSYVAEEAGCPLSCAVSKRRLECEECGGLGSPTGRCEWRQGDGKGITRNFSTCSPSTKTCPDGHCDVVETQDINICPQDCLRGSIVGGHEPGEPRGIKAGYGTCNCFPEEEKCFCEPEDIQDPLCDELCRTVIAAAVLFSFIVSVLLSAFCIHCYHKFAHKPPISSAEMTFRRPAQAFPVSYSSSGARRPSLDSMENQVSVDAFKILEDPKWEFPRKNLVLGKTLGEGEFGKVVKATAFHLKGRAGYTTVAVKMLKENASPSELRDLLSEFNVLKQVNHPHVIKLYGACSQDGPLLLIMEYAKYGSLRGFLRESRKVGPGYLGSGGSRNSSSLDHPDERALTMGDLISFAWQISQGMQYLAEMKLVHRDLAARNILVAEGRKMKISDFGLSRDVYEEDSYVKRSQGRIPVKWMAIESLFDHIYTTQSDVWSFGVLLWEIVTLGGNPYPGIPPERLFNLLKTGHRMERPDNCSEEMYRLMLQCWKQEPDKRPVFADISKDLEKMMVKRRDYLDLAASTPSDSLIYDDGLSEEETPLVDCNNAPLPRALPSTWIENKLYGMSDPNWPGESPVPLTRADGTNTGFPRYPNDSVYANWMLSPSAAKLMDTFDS

ACVR2B (human) = ACVR2B (human) (UniProt Q13705); settings: compound 10.0 µM
[5] = molecular target: TYK2 JH1 catalytic (human) (UniProt P29597); settings: compound 10.0 µM
MAP2K3 (human) = MAP2K3 (human) (UniProt P46734); settings: compound 10.0 µM
NEK5 (human) = NEK5 (human) (UniProt Q6P3R8); settings: compound 10.0 µM
FES (human) = FES (human) (UniProt P07332); settings: compound 10.0 µM
Sequence of FES (human) (P07332 whole entry, looked up): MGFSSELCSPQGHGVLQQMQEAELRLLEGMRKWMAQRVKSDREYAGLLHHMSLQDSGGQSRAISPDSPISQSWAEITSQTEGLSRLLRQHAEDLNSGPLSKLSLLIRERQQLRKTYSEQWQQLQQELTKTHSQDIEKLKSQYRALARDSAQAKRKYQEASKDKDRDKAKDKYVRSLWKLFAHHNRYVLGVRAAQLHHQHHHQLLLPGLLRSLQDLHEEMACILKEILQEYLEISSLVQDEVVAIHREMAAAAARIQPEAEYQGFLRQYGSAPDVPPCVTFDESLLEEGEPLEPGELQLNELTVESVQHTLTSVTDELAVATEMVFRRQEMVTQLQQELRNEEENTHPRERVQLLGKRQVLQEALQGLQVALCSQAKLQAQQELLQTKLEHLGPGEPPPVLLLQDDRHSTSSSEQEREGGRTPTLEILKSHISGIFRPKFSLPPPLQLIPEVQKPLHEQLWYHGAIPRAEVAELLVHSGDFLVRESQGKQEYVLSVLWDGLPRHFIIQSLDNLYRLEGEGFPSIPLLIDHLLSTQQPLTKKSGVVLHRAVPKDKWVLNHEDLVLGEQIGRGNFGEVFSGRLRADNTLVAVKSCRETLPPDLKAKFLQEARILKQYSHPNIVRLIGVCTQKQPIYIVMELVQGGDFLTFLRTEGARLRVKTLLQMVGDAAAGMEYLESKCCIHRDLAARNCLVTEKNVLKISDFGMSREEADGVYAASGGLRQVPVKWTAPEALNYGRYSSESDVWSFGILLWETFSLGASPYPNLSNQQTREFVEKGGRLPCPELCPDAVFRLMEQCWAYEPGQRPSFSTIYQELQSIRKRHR

GSK3B (human) = GSK3B (human) (UniProt P49841); settings: compound 10.0 µM
Sequence of GSK3B (human) (P49841 whole entry, looked up): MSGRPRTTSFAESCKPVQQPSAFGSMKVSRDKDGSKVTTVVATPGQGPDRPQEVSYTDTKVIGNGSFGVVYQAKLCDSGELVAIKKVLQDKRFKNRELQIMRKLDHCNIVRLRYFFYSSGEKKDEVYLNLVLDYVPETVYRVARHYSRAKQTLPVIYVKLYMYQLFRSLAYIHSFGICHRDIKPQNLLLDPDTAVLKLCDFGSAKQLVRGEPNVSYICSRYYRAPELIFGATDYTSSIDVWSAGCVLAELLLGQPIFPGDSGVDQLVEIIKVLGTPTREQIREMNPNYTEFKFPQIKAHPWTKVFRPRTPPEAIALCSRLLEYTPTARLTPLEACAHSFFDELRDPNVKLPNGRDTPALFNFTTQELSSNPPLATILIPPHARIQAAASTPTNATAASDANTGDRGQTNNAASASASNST

MAPK10 (human) = MAPK10 (human) (UniProt P53779); settings: compound 10.0 µM
MAP3K11 (human) = MAP3K11 (human) (UniProt Q16584); settings: compound 10.0 µM
[6] = system: KIT (human), P10721 [A829P]; settings: compound 10.0 µM
MAP3K1 (human) = MAP3K1 (human) (UniProt Q13233); settings: compound 10.0 µM

SMILES: COc1cc(C(=O)N2CCC(N3CCN(C)CC3)CC2)ccc1Nc1ncc2c(n1)N(C)c1ccccc1C(=O)N2C
- kinase still bound, per cent of control (MAST1 (human)): 100%
- kinase still bound, per cent of control (ACVR1 (human)): 98%
- residual activity (CDKL2 (human)): 100%
- kinase still bound, per cent of control (FGFR2 (human)): 95%
- kinase still bound, per cent of control (STK35 (human)): 100%
- kinase still bound, per cent of control (MKNK1 (human)): 50%
- kinase still bound, per cent of control [1]: 79%
- kinase still bound, per cent of control (TLK1 (human)): 100%
- kinase still bound, per cent of control (MYO3A (human)): 94%
- residual activity (CDKL1 (human)): 78%
- kinase still bound, per cent of control (NUAK2 (human)): 47%
- kinase still bound, per cent of control (NTRK3 (human)): 100%
- kinase still bound, per cent of control (CSNK1G3 (human)): 93%
- kinase still bound, per cent of control (EPHA7 (human)): 97%
- kinase still bound, per cent of control (PHKG1 (human)): 54%
- kinase still bound, per cent of control [2]: 89%
- kinase still bound, per cent of control (TNK2 (human)): 18%
- kinase still bound, per cent of control (BTK (human)): 100%
- kinase still bound, per cent of control (HIPK3 (human)): 89%
- kinase still bound, per cent of control (CSF1R (human)): 98%
- kinase still bound, per cent of control [3]: 97%
- kinase still bound, per cent of control (PRKCH (human)): 100%
- kinase still bound, per cent of control (NLK (human)): 50%
- kinase still bound, per cent of control (TIE1 (human)): 100%
- kinase still bound, per cent of control (BMP2K (human)): 100%
- kinase still bound, per cent of control (PDPK1 (human)): 100%
- pKd (DCLK2 (human)): 7.80
- kinase still bound, per cent of control (DCLK2 (human); compound 10.0 µM): 0.45%
- kinase still bound, per cent of control (PDGFRB (human)): 100%
- kinase still bound, per cent of control (BMPR1B (human)): 76%
- kinase still bound, per cent of control (IRAK4 (human)): 83%
- kinase still bound, per cent of control [4]: 80%
- kinase still bound, per cent of control (ACVR2B (human)): 100%
- kinase still bound, per cent of control [5]: 52%
- kinase still bound, per cent of control (MAP2K3 (human)): 75%
- kinase still bound, per cent of control (NEK5 (human)): 100%
- kinase still bound, per cent of control (FES (human)): 84%
- kinase still bound, per cent of control (GSK3B (human)): 88%
- kinase still bound, per cent of control (MAPK10 (human)): 77%
- kinase still bound, per cent of control (MAP3K11 (human)): 100%
- kinase still bound, per cent of control [6]: 100%
- kinase still bound, per cent of control (MAP3K1 (human)): 95%
